The LogP is a log measure of how a compound divides between an organic and an aqueous phase.

Where two headings read alike, the source gives them in different places. Marks after values point to notes of the source that are not given here.

The subject of data set [1] is Phytophthora infestans. The data set is classed as in vivo. Conditions: tomato, preventive spray, 100 ppm of active ingredient, evaluated 7 days after inoculation.
For data set [2] the following is noted: pH 2.7.
In data set [3] the test system is Plasmopara viticola. Put plainly: Plasmopara test (grapevines)/preventive. The data set is classed as in vivo. To be noted: preventive spray, 10 ppm of active ingredient, evaluated 6 days after inoculation. Here is the method: Solvent: 24.5 parts by weight of acetone • 24.5 parts by weight of dimethylacetamide
Emulsifier: 1 part by weight of alkylaryl polyglycol ether
To produce a suitable preparation of active compound, 1 part by weight of active compound is mixed with the stated amounts of solvent and emulsifier, and the concentrate is diluted with water to the desired concentration.
To test for preventive activity, young plants are sprayed with the preparation of active compound at the stated rate of application. After the spray coating has dried on, the plants are inoculated with an aqueous spore suspension of Plasmopara viticola and then remain for 1 day in an incubation cabinet at approximately 20° C. and a relative atmospheric humidity of 100%. The plant is subsequently placed for 4 days in a greenhouse at approximately 21° C. and a relative atmospheric humidity of approximately 90%. The plants are then misted and placed for 1 day in an incubation cabinet.
The test is evaluated 6 days after the inoculation. 0% means an efficacy which corresponds to that of the untreated control, while an efficacy of 100% means that no disease is observed.

The test system of data set [4] is Phytophthora infestans. The data set is classed as in vivo. Conditions: tomato plants, spray, 500 ppm, grading 5 days after contamination.

On to `Cn1c(/C(=N\OCc2cccc(NC(=O)OCCC3CCCCC3)n2)c2ccccc2)noc1=O` [Example 5], for which the results for the Eff. % in data set [1] and in data set [3] were 95% and 88%, respectively. For the same compound, the LogP in data set [2] was 5.27 [a].
Taken in the same sequence, the figures for `Cn1c(/C(=N\OCc2cccc(NC(=O)OCCc3ccccc3)n2)c2ccccc2)noc1=O` [Example 7] were 95%, 96% and 4.15 [a].
As for `CCCCCOC(=O)Nc1cccc(CO/N=C(\c2ccccc2)c2noc(=O)n2C)n1` [Example 26], the Eff. % in data set [1] came out at 93%. Moreover, in data set [2], the LogP is 4.24 [a].
`COc1cccc(OC(C)C(=O)Nc2nc(CO/N=C(/c3ccccc3)c3noc(=O)n3C)cs2)c1` (stereo not drawn) [Example 50]: the LogP in data set [2] was 3.71 [a]. In addition, the Eff. % in data set [4] is recorded as 94%; in data set [3] it was 95%.
The corresponding values for `Cn1c(/C(=N\OCc2cccc(NC(=O)c3ccccc3)n2)c2ccccc2)noc1=O` [Example 54] are 3.51 [a], 100% and 93%.
In the case of `C#CCCOC(=O)Nc1cccc(CO/N=C(/c2ccccc2)c2noc(=O)n2C(F)F)n1` [Example 58], the Eff. % in data set [1] turned out to be 80%. In data set [2], the lipophilicity (LogP) is 3.64 [a].
As to `Cn1c(/C(=N\OCc2cccc(NC(=O)CCC(C)(C)C)n2)c2ccccc2)noc1=O` [Example 59], in data set [2], the LogP was 4.15 [a]. Besides, the Eff. % in data set [4] came to 100%; in data set [3], 98%.
The corresponding values for `CC(OC(=O)Nc1cccc(CO/N=C(/c2ccccc2)c2noc(=O)n2C)n1)c1ccccc1` (stereo not drawn) [Example 68] are 4.23 [a], 100% and 90%.
The compound `C#CCCOC(=O)Nc1cccc(CO/N=C(/c2ccccc2)c2noc(=O)n2CC#N)n1` [Example 70] returned an Eff. % in data set [1] of 84%. Also, the LogP in data set [2] is 3.31 [a].
On to `Cc1cccc(OC(C)C(=O)Nc2nc(CO/N=C(/c3ccccc3)c3noc(=O)n3C)cs2)c1` (stereo not drawn) [Example 80], for which the lipophilicity (LogP) in data set [2] was 3.99 [a]. For the same compound, the Eff. % in data set [4] and in data set [3] was 98% throughout.
For the compound `Cn1c(/C(=N\OCc2cccc(NC(=O)C3Cc4ccccc4CO3)n2)c2ccccc2)noc1=O` (stereo not drawn) [Example 85], the LogP in data set [2] is 4.17 [a]. Further, the Eff. % in data set [4] was determined as 99%; in data set [3] it was 73%.
Regarding `C#CCCOC(=O)Nc1cccc(CO/N=C(/c2ccccc2)c2noc(=O)n2CC#C)n1` [Example 86], the Eff. % in data set [1] was 90%. For the same compound, the lipophilicity (LogP) in data set [2] is 3.46 [a].
As for `CC(C)CCC(=O)Nc1cccc(CO/N=C(/c2ccccc2)c2noc(=O)n2C)n1` [Example 102], the lipophilicity (LogP) in data set [2] is 3.85 [a]. In addition, the Eff. % is given as 100% in data set [4] and 91% in data set [3].
Taken in the same sequence, the figures for `CCn1c(/C(=N\OCc2cccc(NC(=O)OC(C)(C)C)n2)c2ccccc2)noc1=O` [Example 152] were 4.26 [a], 95% and 70%.
The compound `Cn1c(/C(=N\OCc2csc(NC(=O)C(C)(C)C)n2)c2ccccc2)noc1=O` [Example 154] displayed an Eff. % in data set [1] of 95%. Further, the log partition coefficient (LogP) in data set [2] was 3.42 [a].
With `Cn1c(/C(=N\OCc2cccc(NC(=O)CCC3(C)CC3)n2)c2ccccc2)noc1=O` [Example 166], the lipophilicity (LogP) in data set [2] was 3.87 [a]. In addition, the results for the Eff. % in data set [4] and in data set [3] were 99% and 95%, respectively.
Taken in the same sequence, the figures for `Cn1c(/C(=N\OCc2cccc(NC(=O)CC3CCCCC3)n2)c2ccccc2)noc1=O` [Example 208] were 4.26 [a], 100% and 91%.
The corresponding values for `CCCCOCC(=O)Nc1cccc(CO/N=C(/c2ccccc2)c2noc(=O)n2C)n1` [Example 240] are 3.97 [a], 100% and 80%.
Take `CCCCC(C)C(=O)Nc1cccc(CON=C(c2ccccc2)c2noc(=O)n2C)n1` (stereo not drawn) [Example 244]: the log partition coefficient (LogP) in data set [2] was 4.2 [a]. Also, the results for the Eff. % in data set [4] and in data set [3] were 99% and 86%, respectively.
Take `Cn1c(/C(=N\OCc2cccc(NC(=O)c3cccc(I)c3)n2)c2ccccc2)noc1=O` [Example 281]: the log partition coefficient (LogP) in data set [2] was 4.31 [a]. Also, the Eff. % in data set [4] and in data set [3] was 97% in each case.
Regarding `CCCCC(CC)C(=O)Nc1cccc(CO/N=C(/c2ccccc2)c2noc(=O)n2C)n1` (stereo not drawn) [Example 284], the LogP in data set [2] is 4.49 [a]. The Eff. % in data set [4] is 95%; in data set [3] it was 79%.
Taken in the same sequence, the figures for `CC1c2ccccc2COC1C(=O)Nc1cccc(CO/N=C(/c2ccccc2)c2noc(=O)n2C)n1` (stereo not drawn) [Example 291] were 4.35 [a], 100% and 77%.
Taken in the same sequence, the figures for `C#CCCCC(=O)Nc1cccc(CO/N=C(/c2ccccc2)c2noc(=O)n2C)n1` [Example 302] were 3.17 [a], 100% and 92%.
For `Cc1ccc(OC(C)C(=O)Nc2nc(CO/N=C(/c3ccccc3)c3noc(=O)n3C)cs2)cc1` (stereo not drawn) [Example 312], in data set [2], the lipophilicity (LogP) is 4.02 [a]. Moreover, the Eff. % was determined as 94% in data set [4] and 95% in data set [3].
Taken in the same sequence, the figures for `COc1cccc(OCC(=O)Nc2nc(CO/N=C(/c3ccccc3)c3noc(=O)n3C)cs2)c1` [Example 318] were 3.53 [a], 99% and 93%.
Taken in the same sequence, the figures for `CC(Oc1cccc(Cl)c1)C(=O)Nc1nc(CO/N=C(/c2ccccc2)c2noc(=O)n2C)cs1` (stereo not drawn) [Example 321] were 4.1 [a], 97% and 82%.
As to `CCC(Oc1ccccc1)C(=O)Nc1nc(CO/N=C(/c2ccccc2)c2noc(=O)n2C)cs1` (stereo not drawn) [Example 322], the Eff. % in data set [1] was 75%. Further, the LogP in data set [2] is 3.99 [a].
For `Cc1ccc(C)c(C(=O)Nc2cccc(CO/N=C(/c3ccccc3)c3noc(=O)n3C)n2)c1` [Example 327], the LogP in data set [2] is 4.06 [a]. The Eff. % in data set [4] was determined as 100%; in data set [3], 95%.
The corresponding values for `Cc1ccc(C)c(C(=O)Nc2nc(CO/N=C(/c3ccccc3)c3noc(=O)n3C)cs2)c1` [Example 336] are 3.94 [a], 99% and 91%.
Taken in the same sequence, the figures for `CC(C)CC(=O)Nc1cccc(CO/N=C(/c2ccccc2)c2noc(=O)n2C)n1` [Example 340] were 3.44 [a], 100% and 79%.
The corresponding values for `C#CCCOC(=O)Nc1cccc(CO/N=C(/c2cccc(C)c2)c2noc(=O)n2C)n1` [Example 343] are 3.59 [a], 100% and 95%.
With `Cc1cccc(C(=O)Nc2cccc(CO/N=C(/c3ccccc3)c3noc(=O)n3C)n2)c1` [Example 344], in data set [2], the log partition coefficient (LogP) was 3.87 [a]. The Eff. % in data set [4] is on record as 100%; in data set [3] it was 93%.
The corresponding values for `Cn1c(/C(=N\OCc2cccc(NC(=O)c3ccc(Cl)c(Cl)c3)n2)c2ccccc2)noc1=O` [Example 352] are 4.54 [a], 100% and 79%.
Taken in the same sequence, the figures for `CCCCCC(=O)Nc1cccc(CO/N=C(/c2cccc(C)c2)c2noc(=O)n2C)n1` [Example 355] were 4.24 [a], 100% and 75%.
Taken in the same sequence, the figures for `Cn1c(/C(=N\OCc2cccc(NC(=O)CC3CCCC3)n2)c2ccccc2)noc1=O` [Example 365] were 3.92 [a], 100% and 98%.
On to `CCCCCC(=O)Nc1cccc(CO/N=C(/c2cccc(F)c2)c2noc(=O)n2C)n1` [Example 376], for which the log partition coefficient (LogP) in data set [2] was 3.99 [a]. Also, the Eff. % in data set [4] stood at 100%; in data set [3] it was 93%.
The corresponding values for `Cn1c(/C(=N\OCc2csc(NC(=O)Cc3ccccc3)n2)c2ccccc2)noc1=O` [Example 378] are 3.37 [a], 100% and 95%.
Taken in the same sequence, the figures for `Cn1c(/C(=N\OCc2cccc(NC(=O)c3cccc(Br)c3)n2)c2ccccc2)noc1=O` [Example 380] were 4.16 [a], 93% and 95%.
As for `Cn1c(/C(=N\OCc2cccc(NC(=O)CCC3CCC3)n2)c2ccccc2)noc1=O` [Example 389], the LogP in data set [2] was 4.02 [a]. The Eff. % in data set [4] is on record as 99%; in data set [3], 100%.
The corresponding values for `Cc1ccc(C(=O)Nc2cccc(CO/N=C(/c3ccccc3)c3noc(=O)n3C)n2)cc1C` [Example 401] are 4.16 [a], 99% and 90%.
The corresponding values for `Cn1c(/C(=N\OCc2cccc(NC(=O)CCCCCl)n2)c2ccccc2)noc1=O` [Example 404] are 3.44 [a], 98% and 87%.

(Values after patent publication US9090600B2, “Fungicidal 4-substituted-3-{phenyl[(heterocyclylmethoxy)imino]methyl}-1,2,4-oxadizol-5(4H)-one derivatives” (BAYER INTELLECTUAL PROPERTY GMBH, priority 2011, dated 2015).)
